How the values were obtained:
SST5 = molecular target: T1, SST5 (Homo sapiens, UniProt P35346); test: GPCR radioligand binding (RLB) assay, somatostatin SST5, [125I]SST-14; conditions: 10 micromolar; Example Library 4
T1 construct: purchased Perkin Elmer BioSignal; host or cells: HEK 293
Procedure, shortened: (§1)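 Competition binding against radioligand ([125I]NDP-αMSH for MC4, [125I]SST-14 for SST5) on membranes of HEK 293 cells carrying the human receptor; buffer and incubation time optimized per receptor. Filtration through 0.5% PEI-treated glass fiber, washing, then scintillation counting.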

MC4 = molecular target: T2, MC4 (Homo sapiens, UniProt P32245); test: GPCR radioligand binding (RLB) assay, melanocortin MC4, [125I]NDP-αMSH; conditions: 10 micromolar; Example Library 4
T2 construct: purchased Perkin Elmer BioSignal; host or cells: HEK 293
T2 sequence (P32245 whole entry): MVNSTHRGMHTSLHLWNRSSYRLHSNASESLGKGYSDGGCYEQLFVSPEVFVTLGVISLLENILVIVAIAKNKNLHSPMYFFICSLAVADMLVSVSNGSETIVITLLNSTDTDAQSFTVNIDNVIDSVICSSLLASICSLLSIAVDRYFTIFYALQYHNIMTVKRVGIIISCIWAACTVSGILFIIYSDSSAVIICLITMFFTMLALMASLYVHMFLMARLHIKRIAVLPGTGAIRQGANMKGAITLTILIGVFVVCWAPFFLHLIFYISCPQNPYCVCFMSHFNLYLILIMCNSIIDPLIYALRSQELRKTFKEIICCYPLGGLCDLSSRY
Procedure, shortened: as §1

T1 sequence (P35346 whole entry): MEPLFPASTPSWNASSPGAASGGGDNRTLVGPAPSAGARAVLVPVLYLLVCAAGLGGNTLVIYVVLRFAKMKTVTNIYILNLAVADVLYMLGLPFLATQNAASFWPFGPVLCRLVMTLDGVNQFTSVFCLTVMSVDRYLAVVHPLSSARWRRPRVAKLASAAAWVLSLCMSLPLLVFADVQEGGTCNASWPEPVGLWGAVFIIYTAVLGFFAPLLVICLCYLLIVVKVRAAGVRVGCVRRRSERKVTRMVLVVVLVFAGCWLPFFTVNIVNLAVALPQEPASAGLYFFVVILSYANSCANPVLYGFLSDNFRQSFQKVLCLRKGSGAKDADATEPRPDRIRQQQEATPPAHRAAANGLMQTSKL

In the case of `COCC1OC(OCc2ccc(Cl)cc2)C(NC(=O)CCNC(=N)N)C(OCc2ccc3ccccc3c2)C1O` (centres unmarked) [Compound 257], the “SSTS inhibition at 10 micromolar” value (SST5) is reported as “+ (Indicates inhibition greater than . . . 50%)” and the “MC4 inhibition at 10 micromolar” value (MC4) is reported as “+ (Indicates inhibition greater than . . . 50%)”.
For `COCC1OC(OCc2ccc(Cl)cc2)C(NC(=O)CCCN)C(OCc2ccc3ccccc3c2)C1O` (centres unmarked) [Compound 258], the “SSTS inhibition at 10 micromolar” value (SST5) was “+ (Indicates inhibition greater than . . . 50%)” and the “MC4 inhibition at 10 micromolar” value (MC4) was “+ (Indicates inhibition greater than . . . 50%)”.
With `COCC1OC(OCc2ccc(Cl)cc2)C(NC(=O)CCCNC(=N)N)C(OCc2ccc3ccccc3c2)C1O` (centres unmarked) [Compound 259] the “SSTS inhibition at 10 micromolar” value (SST5) was “+ (Indicates inhibition greater than . . . 50%)” and the “MC4 inhibition at 10 micromolar” value (MC4) was “+ (Indicates inhibition greater than . . . 50%)”.
In the case of `COCC1OC(OCCc2ccccc2)C(NC(=O)CCNC(=N)N)C(OCc2ccccc2)C1O` (centres unmarked) [Compound 263], the “SSTS inhibition at 10 micromolar” value (SST5) is reported as “+ (Indicates inhibition greater than . . . 50%)” and the “MC4 inhibition at 10 micromolar” value (MC4) is reported as “+ (Indicates inhibition greater than . . . 50%)”.
`COCC1OC(OCCc2ccccc2)C(NC(=O)CCCNC(=N)N)C(OCc2ccccc2)C1O` (centres unmarked) [Compound 265] was tested, and the “SSTS inhibition at 10 micromolar” value (SST5) was “+ (Indicates inhibition greater than . . . 50%)” and the “MC4 inhibition at 10 micromolar” value (MC4) was “+ (Indicates inhibition greater than . . . 50%)”.
In the case of `COCC1OC(OCCc2ccccc2)C(NC(=O)CNC(=N)N)C(OCc2ccc(Cl)cc2)C1O` (centres unmarked) [Compound 267], the “SSTS inhibition at 10 micromolar” value (SST5) is reported as “+ (Indicates inhibition greater than . . . 50%)” and the “MC4 inhibition at 10 micromolar” value (MC4) is reported as “+ (Indicates inhibition greater than . . . 50%)”.
In the case of `COCC1OC(OCCc2ccccc2)C(NC(=O)CCN)C(OCc2ccc(Cl)cc2)C1O` (centres unmarked) [Compound 268], the “SSTS inhibition at 10 micromolar” value (SST5) is reported as “+ (Indicates inhibition greater than . . . 50%)” and the “MC4 inhibition at 10 micromolar” value (MC4) is reported as “+ (Indicates inhibition greater than . . . 50%)”.
In the case of `COCC1OC(OCCc2ccccc2)C(NC(=O)CCNC(=N)N)C(OCc2ccc(Cl)cc2)C1O` (centres unmarked) [Compound 269], the “SSTS inhibition at 10 micromolar” value (SST5) is reported as “+ (Indicates inhibition greater than . . . 50%)” and the “MC4 inhibition at 10 micromolar” value (MC4) is reported as “+ (Indicates inhibition greater than . . . 50%)”.
In the case of `COCC1OC(OCCc2ccccc2)C(NC(=O)CCCN)C(OCc2ccc(Cl)cc2)C1O` (centres unmarked) [Compound 270], the “SSTS inhibition at 10 micromolar” value (SST5) is reported as “+ (Indicates inhibition greater than . . . 50%)” and the “MC4 inhibition at 10 micromolar” value (MC4) is reported as “+ (Indicates inhibition greater than . . . 50%)”.
`COCC1OC(OCCc2ccccc2)C(NC(=O)CCCNC(=N)N)C(OCc2ccc(Cl)cc2)C1O` (centres unmarked) [Compound 271] was tested, and the “SSTS inhibition at 10 micromolar” value (SST5) was “+ (Indicates inhibition greater than . . . 50%)” and the “MC4 inhibition at 10 micromolar” value (MC4) was “+ (Indicates inhibition greater than . . . 50%)”.
For `COCC1OC(OCCc2ccccc2)C(NC(=O)CN)C(OCc2ccc(-c3ccccc3)cc2)C1O` (centres unmarked) [Compound 272], the “SSTS inhibition at 10 micromolar” value (SST5) was “+ (Indicates inhibition greater than . . . 50%)” and the “MC4 inhibition at 10 micromolar” value (MC4) was “+ (Indicates inhibition greater than . . . 50%)”.
In the case of `COCC1OC(OCCc2ccccc2)C(NC(=O)CNC(=N)N)C(OCc2ccc(-c3ccccc3)cc2)C1O` (centres unmarked) [Compound 273], the “SSTS inhibition at 10 micromolar” value (SST5) is reported as “+ (Indicates inhibition greater than . . . 50%)” and the “MC4 inhibition at 10 micromolar” value (MC4) is reported as “+ (Indicates inhibition greater than . . . 50%)”.
In the case of `COCC1OC(OCCc2ccccc2)C(NC(=O)CN)C(OCc2ccc(-c3ccccc3)cc2)C1O` (centres unmarked) [Compound 274], the “SSTS inhibition at 10 micromolar” value (SST5) is reported as “+ (Indicates inhibition greater than . . . 50%)” and the “MC4 inhibition at 10 micromolar” value (MC4) is reported as “+ (Indicates inhibition greater than . . . 50%)”.
`COCC1OC(OCCc2ccccc2)C(NC(=O)CCNC(=N)N)C(OCc2ccc(-c3ccccc3)cc2)C1O` (centres unmarked) [Compound 275] was tested, and the “SSTS inhibition at 10 micromolar” value (SST5) was “+ (Indicates inhibition greater than . . . 50%)” and the “MC4 inhibition at 10 micromolar” value (MC4) was “+ (Indicates inhibition greater than . . . 50%)”.
In the case of `COCC1OC(OCCc2ccccc2)C(NC(=O)CCCN)C(OCc2ccc(-c3ccccc3)cc2)C1O` (centres unmarked) [Compound 276], the “SSTS inhibition at 10 micromolar” value (SST5) is reported as “+ (Indicates inhibition greater than . . . 50%)” and the “MC4 inhibition at 10 micromolar” value (MC4) is reported as “+ (Indicates inhibition greater than . . . 50%)”.
`COCC1OC(OCCc2ccccc2)C(NC(=O)CCCNC(=N)N)C(OCc2ccc(-c3ccccc3)cc2)C1O` (centres unmarked) [Compound 277] was tested, and the “SSTS inhibition at 10 micromolar” value (SST5) was “+ (Indicates inhibition greater than . . . 50%)” and the “MC4 inhibition at 10 micromolar” value (MC4) was “+ (Indicates inhibition greater than . . . 50%)”.
With `COCC1OC(OCCc2ccccc2)C(NC(=O)CN)C(OCc2ccc3ccccc3c2)C1O` (centres unmarked) [Compound 278] the “SSTS inhibition at 10 micromolar” value (SST5) was “+ (Indicates inhibition greater than . . . 50%)” and the “MC4 inhibition at 10 micromolar” value (MC4) was “+ (Indicates inhibition greater than . . . 50%)”.
With `COCC1OC(OCCc2ccccc2)C(NC(=O)CNC(=N)N)C(OCc2ccc3ccccc3c2)C1O` (centres unmarked) [Compound 279] the “SSTS inhibition at 10 micromolar” value (SST5) was “+ (Indicates inhibition greater than . . . 50%)” and the “MC4 inhibition at 10 micromolar” value (MC4) was “+ (Indicates inhibition greater than . . . 50%)”.
`COCC1OC(OCCc2ccccc2)C(NC(=O)CN)C(OCc2ccc3ccccc3c2)C1O` (centres unmarked) [Compound 280] was tested, and the “SSTS inhibition at 10 micromolar” value (SST5) was “+ (Indicates inhibition greater than . . . 50%)” and the “MC4 inhibition at 10 micromolar” value (MC4) was “+ (Indicates inhibition greater than . . . 50%)”.
With `COCC1OC(OCCc2ccccc2)C(NC(=O)CCNC(=N)N)C(OCc2ccc3ccccc3c2)C1O` (centres unmarked) [Compound 281] the “SSTS inhibition at 10 micromolar” value (SST5) was “+ (Indicates inhibition greater than . . . 50%)” and the “MC4 inhibition at 10 micromolar” value (MC4) was “+ (Indicates inhibition greater than . . . 50%)”.
`COCC1OC(OCCc2ccccc2)C(NC(=O)CCCN)C(OCc2ccc3ccccc3c2)C1O` (centres unmarked) [Compound 282] was tested, and the “SSTS inhibition at 10 micromolar” value (SST5) was “+ (Indicates inhibition greater than . . . 50%)” and the “MC4 inhibition at 10 micromolar” value (MC4) was “+ (Indicates inhibition greater than . . . 50%)”.
For `COCC1OC(OCCc2ccccc2)C(NC(=O)CCCNC(=N)N)C(OCc2ccc3ccccc3c2)C1O` (centres unmarked) [Compound 283], the “SSTS inhibition at 10 micromolar” value (SST5) was “+ (Indicates inhibition greater than . . . 50%)” and the “MC4 inhibition at 10 micromolar” value (MC4) was “+ (Indicates inhibition greater than . . . 50%)”.
`COCC1OC(OCc2ccc3ccccc3c2)C(NC(=O)CNC(=N)N)C(OCc2ccccc2)C1O` (centres unmarked) [Compound 285] was tested, and the “SSTS inhibition at 10 micromolar” value (SST5) was “+ (Indicates inhibition greater than . . . 50%)” and the “MC4 inhibition at 10 micromolar” value (MC4) was “+ (Indicates inhibition greater than . . . 50%)”.
`COCC1OC(OCc2ccc3ccccc3c2)C(NC(=O)CN)C(OCc2ccccc2)C1O` (centres unmarked) [Compound 286] was tested, and the “SSTS inhibition at 10 micromolar” value (SST5) was “+ (Indicates inhibition greater than . . . 50%)” and the “MC4 inhibition at 10 micromolar” value (MC4) was “+ (Indicates inhibition greater than . . . 50%)”.
In the case of `COCC1OC(OCc2ccc3ccccc3c2)C(NC(=O)CCNC(=N)N)C(OCc2ccccc2)C1O` (centres unmarked) [Compound 287], the “SSTS inhibition at 10 micromolar” value (SST5) is reported as “+ (Indicates inhibition greater than . . . 50%)” and the “MC4 inhibition at 10 micromolar” value (MC4) is reported as “+ (Indicates inhibition greater than . . . 50%)”.
For `COCC1OC(OCc2ccc3ccccc3c2)C(NC(=O)CNC(=N)N)C(OCc2ccc(Cl)cc2)C1O` (centres unmarked) [Compound 291], the “SSTS inhibition at 10 micromolar” value (SST5) was “+ (Indicates inhibition greater than . . . 50%)” and the “MC4 inhibition at 10 micromolar” value (MC4) was “+ (Indicates inhibition greater than . . . 50%)”.
In the case of `COCC1OC(OCc2ccc3ccccc3c2)C(NC(=O)CCNC(=N)N)C(OCc2ccc(Cl)cc2)C1O` (centres unmarked) [Compound 293], the “SSTS inhibition at 10 micromolar” value (SST5) is reported as “+ (Indicates inhibition greater than . . . 50%)” and the “MC4 inhibition at 10 micromolar” value (MC4) is reported as “+ (Indicates inhibition greater than . . . 50%)”.
`COCC1OC(OCc2ccc3ccccc3c2)C(NC(=O)CCCN)C(OCc2ccc(Cl)cc2)C1O` (centres unmarked) [Compound 294] was tested, and the “SSTS inhibition at 10 micromolar” value (SST5) was “+ (Indicates inhibition greater than . . . 50%)” and the “MC4 inhibition at 10 micromolar” value (MC4) was “+ (Indicates inhibition greater than . . . 50%)”.
`COCC1OC(OCc2ccc3ccccc3c2)C(NC(=O)CCCNC(=N)N)C(OCc2ccc(Cl)cc2)C1O` (centres unmarked) [Compound 295] was tested, and the “SSTS inhibition at 10 micromolar” value (SST5) was “+ (Indicates inhibition greater than . . . 50%)” and the “MC4 inhibition at 10 micromolar” value (MC4) was “+ (Indicates inhibition greater than . . . 50%)”.
In the case of `COCC1OC(OCc2ccc3ccccc3c2)C(NC(=O)CNC(=N)N)C(OCc2ccc(-c3ccccc3)cc2)C1O` (centres unmarked) [Compound 297], the “SSTS inhibition at 10 micromolar” value (SST5) is reported as “+ (Indicates inhibition greater than . . . 50%)” and the “MC4 inhibition at 10 micromolar” value (MC4) is reported as “+ (Indicates inhibition greater than . . . 50%)”.
With `COCC1OC(OCc2ccc3ccccc3c2)C(NC(=O)CN)C(OCc2ccc(-c3ccccc3)cc2)C1O` (centres unmarked) [Compound 298] the “SSTS inhibition at 10 micromolar” value (SST5) was “+ (Indicates inhibition greater than . . . 50%)” and the “MC4 inhibition at 10 micromolar” value (MC4) was “+ (Indicates inhibition greater than . . . 50%)”.
`COCC1OC(OCc2ccc3ccccc3c2)C(NC(=O)CCNC(=N)N)C(OCc2ccc(-c3ccccc3)cc2)C1O` (centres unmarked) [Compound 299] was tested, and the “SSTS inhibition at 10 micromolar” value (SST5) was “+ (Indicates inhibition greater than . . . 50%)” and the “MC4 inhibition at 10 micromolar” value (MC4) was “+ (Indicates inhibition greater than . . . 50%)”.
For `COCC1OC(OCc2ccc3ccccc3c2)C(NC(=O)CCCN)C(OCc2ccc(-c3ccccc3)cc2)C1O` (centres unmarked) [Compound 300], the “SSTS inhibition at 10 micromolar” value (SST5) was “+ (Indicates inhibition greater than . . . 50%)” and the “MC4 inhibition at 10 micromolar” value (MC4) was “+ (Indicates inhibition greater than . . . 50%)”.
For `COCC1OC(OCc2ccc3ccccc3c2)C(NC(=O)CCCNC(=N)N)C(OCc2ccc(-c3ccccc3)cc2)C1O` (centres unmarked) [Compound 301], the “SSTS inhibition at 10 micromolar” value (SST5) was “+ (Indicates inhibition greater than . . . 50%)” and the “MC4 inhibition at 10 micromolar” value (MC4) was “+ (Indicates inhibition greater than . . . 50%)”.
